Source: ChEMBL document CHEMBL5380777, “Efficacy, Mechanism, and Structure-Activity Relationship of 6-Methoxy Benzofuran Derivatives as a Useful Tool for Senile Osteoporosis” (J Med Chem, 2023)
Activity calls are given as the source filed them. The rule behind the calls is not given here.

Tests used:
[1] = Toxicity in 16 months old C57 mouse assessed as change in body weight administered at 30 mg/kg/day, IG continuously for 4 months relative to aged control group; type: organism-based; conditions: in vivo, po, 2920 h
[2] = Toxicity in 16 months old C57 mouse assessed as change in albumin level administered at 30 mg/kg/day, IG continuously for 4 months; type: organism-based; conditions: in vivo, po, 2920 h
Osteoblast [3] = assay: Upregulation of transcription factor HMGA1 expression in 16 months old C57 mouse osteoblast by scRNA-seq analysis; type: functional, cell-based
[4] = Toxicity in 16 months old C57 mouse assessed as change in serum AST level administered at 30 mg/kg/day, IG continuously for 4 months; type: organism-based; conditions: in vivo, po, 2920 h
Mus musculus [5] = assay: Anti osteoporosis in 2.5 months old SAMP-6 rapid aging mouse model assessed as upregulation of serum BMP2 administered at 30 mg/kg/day, IG in presence of ALN continuously for 3 months […]; type: functional, organism-based
[6] = Toxicity in 2.5 months old SAMP-6 rapid aging mouse model assessed as change in urea level administered at 30 mg/kg/day, IG continuously for 3 months in presence of ALN; type: organism-based; conditions: in vivo, po, 2190 h
[7] = Toxicity in 16 months old C57 mouse assessed as change in blood glucose level administered at 30 mg/kg/day, IG continuously for 4 months; type: organism-based; conditions: in vivo, po, 2920 h
[8] = Toxicity in 16 months old C57 mouse assessed as change in cholesterol level administered at 30 mg/kg/day, IG for 4 months for every 6 days; type: organism-based; conditions: in vivo, po, 2920 h
Mus musculus [9] = assay: Anti osteoporosis in 16 months old C57 mouse assessed as erythroblast level in femur administered at 30 mg/kg/day, IG continuously for 4 months by scRNA-seq analysis (reference value: 1.91%); type: functional; conditions: 2920 h
Mus musculus [10] = assay: Anti osteoporosis in 2.5 months old SAMP-6 rapid aging mouse model assessed as increase in number of osteoblast per square millimeter of the trabecular bone surface administered at 30 mg/kg/day, IG continuously for 3 months […]; type: functional, organism-based
Mus musculus [11] = assay: Anti osteoporosis in 16 months old C57 mouse assessed as granulocyte level in femur administered at 30 mg/kg/day, IG continuously for 4 months by scRNA-seq analysis (reference value: 28.33%); type: functional; conditions: 2920 h
Osteocyte = assay: Upregulation of BMP-2 expression in 16 months old C57 mouse osteocytes by scRNA-seq analysis; type: functional, cell-based
Osteoblast [12] = assay: Regulation of osteogenesis in 16 months old C57 mouse osteoblast endoplasmic reticulum assessed as increase in Atf4 gene by scRNA-seq analysis; type: functional, cell-based
[13] = Toxicity in 16 months old C57 mouse assessed as change in serum ALT level administered at 30 mg/kg/day, IG continuously for 4 months; type: organism-based; conditions: in vivo, po, 2920 h
Mus musculus [14] = assay: Anti osteoporosis in 2.5 months old SAMP-6 rapid aging mouse model assessed as increase in bone mass administered at 30 mg/kg/day, IG continuously for 3 months by micro CT analysis; type: functional, organism-based
[15] = Toxicity in 16 months old C57 mouse assessed as change in urea level administered at 30 mg/kg/day, IG continuously for 4 months; type: organism-based; conditions: in vivo, po, 2920 h
Mus musculus [16] = assay: Anti osteoporosis in 16 months old C57 mouse assessed as chondroblast level in femur administered at 30 mg/kg/day, IG continuously for 4 months by scRNA-seq analysis (reference value: 2.49%); type: functional; conditions: 2920 h
[17] = Toxicity in 2.5 months old SAMP-6 rapid aging mouse model assessed as change in serum ALT level administered at 30 mg/kg/day, IG continuously for 3 months; type: organism-based; conditions: in vivo, po, 2190 h
[18] = Toxicity in 2.5 months old SAMP-6 rapid aging mouse model assessed as change in serum ALT level administered at 30 mg/kg/day, IG continuously for 3 months in presence of ALN; type: organism-based; conditions: in vivo, po, 2190 h
Mus musculus [19] = assay: Anti osteoporosis in 16 months old C57 mouse assessed as macrophage level in femur administered at 30 mg/kg/day, IG continuously for 4 months by scRNA-seq analysis (reference value: 1.88%); type: functional; conditions: 2920 h
Mus musculus [20] = assay: Anti osteoporosis in 2.5 months old SAMP-6 rapid aging mouse model assessed as bone mass maintenance administered at 30 mg/kg/day, IG continuously for 3 months; type: functional, organism-based
Danio rerio = species: Danio rerio; assay: Anti osteoporosis activity in prednisone induced wildtype 3 days post-fertilization AB zebrafish osteoporosis model assessed as increase in bone fluorescence intensity (RVB = 13620 +/- 1692); type: functional
Osteoblast [21] = assay: Regulation of osteogenesis in 16 months old C57 mouse osteoblast endoplasmic reticulum assessed as increase in Hsp90ab1 gene by scRNA-seq analysis; type: functional, cell-based
Osteoblast [22] = assay: Regulation of osteogenesis in 16 months old C57 mouse osteoblast endoplasmic reticulum assessed as increase in Hsph1 gene by scRNA-seq analysis; type: functional, cell-based
[23] = Toxicity in 2.5 months old SAMP-6 rapid aging mouse model assessed as morphological change in kidney administered at 30 mg/kg/day, IG continuously for 3 months in presence of ALN by hematoxylin and eosin staining analysis; type: organism-based; conditions: in vivo, po, 2190 h
Mus musculus [24] = assay: Anti osteoporosis in 16 months old C57 mouse assessed as B cell level in femur administered at 30 mg/kg/day, IG continuously for 4 months by scRNA-seq analysis (reference value: 5.19%); type: functional; conditions: 2920 h
Osteoblast [25] = assay: Regulation of osteogenesis in 16 months old C57 mouse osteoblast endoplasmic reticulum assessed as increase in Hspa1b gene by scRNA-seq analysis; type: functional, cell-based
Mus musculus [26] = assay: Anti osteoporosis in 2.5 months old SAMP-6 rapid aging mouse model assessed as upregulation of serum BMP2 administered at 30 mg/kg/day, IG continuously for 3 months […]; type: functional, organism-based
Osteoblast [27] = assay: Upregulation of transcription factor CSDE1 expression in 16 months old C57 mouse osteoblast by scRNA-seq analysis; type: functional, cell-based
Osteoblast [28] = assay: Upregulation of transcription factor TAX1BP1 expression in 16 months old C57 mouse osteoblast by scRNA-seq analysis; type: functional, cell-based
Osteoblast [29] = assay: Regulation of osteogenesis in 16 months old C57 mouse osteoblast endoplasmic reticulum assessed as increase in CRYAB gene by scRNA-seq analysis; type: functional, cell-based
Mus musculus [30] = assay: Anti osteoporosis in 16 months old C57 mouse assessed as GrP level in femur administered at 30 mg/kg/day, IG continuously for 4 months by scRNA-seq analysis (reference value: 12.75%); type: functional; conditions: 2920 h
Mus musculus [31] = assay: Anti osteoporosis in 2.5 months old SAMP-6 rapid aging mouse model assessed as increase in osteoblast formation administered at 30 mg/kg/day, IG continuously for 3 months; type: functional, organism-based
Osteoblast [32] = assay: Regulation of osteogenesis in 16 months old C57 mouse osteoblast endoplasmic reticulum assessed as increase in Dnaja1 gene by scRNA-seq analysis; type: functional, cell-based
[33] = Toxicity in 16 months old C57 mouse assessed as change in alkaline phosphatase level administered at 30 mg/kg/day, IG continuously for 4 months; type: organism-based; conditions: in vivo, po, 2920 h
Mus musculus [34] = assay: Anti osteoporosis in 16 months old C57 mouse assessed as megakaryocyte level in femur administered at 30 mg/kg/day, IG continuously for 4 months by scRNA-seq analysis (reference value: 1%); type: functional; conditions: 2920 h
Osteoblast [35] = assay: Upregulation of BMP-2 expression in 16 months old C57 mouse osteoblast by scRNA-seq analysis; type: functional, cell-based
[36] = Toxicity in 2.5 months old SAMP-6 rapid aging mouse model assessed as change in creatinine level administered at 30 mg/kg/day, IG continuously for 3 months in presence of ALN; type: organism-based; conditions: in vivo, po, 2190 h

## COc1ccc2cc(C(=O)NCCN(C)C)oc2c1.CS(=O)(=O)O
[1]
  Activity: Non-Toxic
[2]
  Activity: Non-Toxic
Osteoblast [3]
  Activity: Active
[4]
  Activity: Non-Toxic
Mus musculus [5]
  Activity: Active
[6]
  Activity: Non-Toxic
[7]
  Activity: Non-Toxic
[8]
  Activity: Non-Toxic
Mus musculus [9]
  Activity: 1.42%
Mus musculus [10]
  Activity: Active
Mus musculus [11]
  Activity: 34.01%
Osteocyte
  Activity: Active
Osteoblast [12]
  Activity: Active
[13]
  Activity: Non-Toxic
Mus musculus [14]
  Activity: Active
[15]
  Activity: Non-Toxic
Mus musculus [16]
  Activity: 3.77%
[17]
  Activity: Non-Toxic
[18]
  Activity: Non-Toxic
Mus musculus [19]
  Activity: 1.33%
Mus musculus [20]
  Activity: Active
Danio rerio
  Flu intensity: 19181
Osteoblast [21]
  Activity: Active
Osteoblast [22]
  Activity: Active
[23]
  Activity: Non-Toxic
Mus musculus [24]
  Activity: 3.05%
Osteoblast [25]
  Activity: Active
Mus musculus [26]
  Activity: Active
Osteoblast [27]
  Activity: Active
Osteoblast [28]
  Activity: Active
Osteoblast [29]
  Activity: Active
Mus musculus [30]
  Activity: 6.51%
Mus musculus [31]
  Activity: Active
Osteoblast [32]
  Activity: Active
[33]
  Activity: Non-Toxic
Mus musculus [34]
  Activity: 0.78%
Osteoblast [35]
  Activity: Active
[36]
  Activity: Non-Toxic
